In the supplement of paper PMC4862054:

How the values were obtained:
Conditions in all cases: incubation time: 72 h
HDQ-P1 [1] = assay: drug sensitivity score (DSS), CellTiter-Blue viability (DSS (AUC-based score)); higher = stronger viability inhibition; extreme values may be limits of the assay
Summary of the method: (§1)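 Drug sensitivity scores correspond to the area under the fitted dose-response curve. Breast cancer cell lines were incubated 72 h with compound at 5 or 9 concentrations in 384-well plates. Viability, read as CellTiter-Blue fluorescence at 560/590 nm, was normalised per plate to 0.1 % DMSO and a positive kill control.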

BT-549 = assay: as above
Summary of the method: as §1

HCC1599 [2] = assay: as above
Summary of the method: as §1

Hs578T [3] = assay: as above
Summary of the method: as §1

MDA-MB-231 [4] = assay: as above
Summary of the method: as §1

BT-474 = assay: as above
Summary of the method: as §1

MDA-MB-436 [5] = assay: as above
Summary of the method: as §1

CAL-85-1 [6] = assay: as above
Summary of the method: as §1

DU-4475 = assay: as above
Summary of the method: as §1

CAL-51 [7] = assay: as above
Summary of the method: as §1

SK-BR-3 [8] = assay: as above
Summary of the method: as §1

MDA-MB-468 [9] = assay: as above
Summary of the method: as §1

MDA-MB-453 = assay: as above
Summary of the method: as §1

CAL-148 [10] = assay: as above
Summary of the method: as §1

HCC1143 = assay: as above
Summary of the method: as §1

MFM-223 = assay: as above
Summary of the method: as §1

HDQ-P1 [11] = assay: normalised viability (% of control), CellTiter-Blue; higher = more viable cells (about 100 = DMSO control)
Description: (§2)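 DSRT, CellTiter-Blue viability, 72 h incubation. Signal is normalised to DMSO and benzethonium chloride controls. Value is the normalised response at dose 3.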

CAL-120 = assay: as above
Description: as §2

HCC1599 [12] = assay: as above
Description: as §2

Hs578T [13] = assay: as above
Description: as §2

MDA-MB-231 [14] = assay: as above
Description: as §2

MDA-MB-436 [15] = assay: as above
Description: as §2

HCC1937 = assay: as above
Description: as §2

CAL-85-1 [16] = assay: as above
Description: as §2

CAL-51 [17] = assay: as above
Description: as §2

SK-BR-3 [18] = assay: as above
Description: as §2

MDA-MB-468 [19] = assay: as above
Description: as §2

CAL-148 [20] = assay: as above
Description: as §2

| SMILES | drug sensitivity score (HDQ-P1 [1]) | drug sensitivity score (BT-549) | drug sensitivity score (HCC1599 [2]) | drug sensitivity score (Hs578T [3]) | drug sensitivity score (MDA-MB-231 [4]) | drug sensitivity score (BT-474) | drug sensitivity score (MDA-MB-436 [5]) | drug sensitivity score (CAL-85-1 [6]) | drug sensitivity score (DU-4475) | drug sensitivity score (CAL-51 [7]) | drug sensitivity score (SK-BR-3 [8]) | drug sensitivity score (MDA-MB-468 [9]) | drug sensitivity score (MDA-MB-453) | drug sensitivity score (CAL-148 [10]) | drug sensitivity score (HCC1143) | drug sensitivity score (MFM-223) | normalised viability (HDQ-P1 [11]; 10 nM) | normalised viability (CAL-120; 100 nM) | normalised viability (HCC1599 [12]; 100 nM) | normalised viability (Hs578T [13]; 100 nM) | further results |
| --- | --- | --- | --- | --- | --- | --- | --- | --- | --- | --- | --- | --- | --- | --- | --- | --- | --- | --- | --- | --- | --- |
| O=C1c2c(O)ccc(O)c2C(=O)c2c(NCCNCCO)ccc(NCCNCCO)c21 [Mitoxantrone] | 8.81 | 4.76 | 4.36 | 4.05 | 11.8 | 6.48 | 3.16 | 5.25 | 22.7 | 17.6 | 15.3 | 9.75 | 4.9 | 17.4 | 6.5 | 2.58 |  |  |  |  | normalised viability (HDQ-P1 [11]; 1 nM): 95%; normalised viability (CAL-120; 10 nM): 67.4%; normalised viability (HCC1599 [12]; 10 nM): 108%; normalised viability (Hs578T [13]; 10 nM): 71.8%; normalised viability (MDA-MB-231 [14]; 10 nM): 72.5%; normalised viability (MDA-MB-436 [15]; 10 nM): 99.6%; normalised viability (HCC1937; 10 nM): 46.6%; normalised viability (CAL-85-1 [16]; 1 nM): 95.1%; normalised viability (CAL-51 [17]; 1 nM): 104%; normalised viability (SK-BR-3 [18]; 10 nM): 75.6%; normalised viability (MDA-MB-468 [19]; 10 nM): 80.4%; normalised viability (CAL-148 [20]; 1 nM): 94.3% |
| Nc1ccccc1NC(=O)c1ccc(CNc2nccc(-c3cccnc3)n2)cc1 [Mocetinostat] | 2.86 | 7.6 | 10.1 | 6.43 | 6.93 | 2.91 | 9.06 | 8.63 | 12.9 | 5.94 | 10.9 | 7.64 | 12.8 | 8.31 | 6.77 | 3.47 | 117% | 53.6% | 86.9% | 80.8% | normalised viability (MDA-MB-231 [14]; 100 nM): 84.3%; normalised viability (MDA-MB-436 [15]; 100 nM): 81.2%; normalised viability (HCC1937; 100 nM): 79.2%; normalised viability (CAL-85-1 [16]; 10 nM): 91.2%; normalised viability (CAL-51 [17]; 10 nM): 98.2%; normalised viability (SK-BR-3 [18]; 100 nM): 83.9%; normalised viability (MDA-MB-468 [19]; 100 nM): 129%; normalised viability (CAL-148 [20]; 10 nM): 111% |
| Cc1ccc(Nc2nccc(N(C)c3ccc4c(C)n(C)nc4c3)n2)cc1S(N)(=O)=O [Pazopanib] | 1.38 | 3.13 | 0 | 0 | 0 | 0 | 4.09 | 0 | 0 | 0 | 0 | 0 | 6.67 | 0 | 0 | 11.6 | 93.8% | 81.6% | 108% | 86.5% | normalised viability (MDA-MB-231 [14]; 100 nM): 94.3%; normalised viability (MDA-MB-436 [15]; 100 nM): 88.3%; normalised viability (HCC1937; 100 nM): 94%; normalised viability (CAL-85-1 [16]; 10 nM): 95.6%; normalised viability (CAL-51 [17]; 10 nM): 104%; normalised viability (SK-BR-3 [18]; 100 nM): 78.7%; normalised viability (MDA-MB-468 [19]; 100 nM): 104%; normalised viability (CAL-148 [20]; 10 nM): 88.3% |
| O=C(CCBr)N1CCN(C(=O)CCBr)CC1 [Pipobroman] | 0 | 0 | 0 | 0 | 0 | 0 | 0 | 0 | 0 | 0 | 0 | 0 | 2.49 | 0 | 0 | 3.19 | 99.4% | 96% | 93.4% | 91.4% | normalised viability (MDA-MB-231 [14]; 100 nM): 94.7%; normalised viability (MDA-MB-436 [15]; 100 nM): 93%; normalised viability (HCC1937; 100 nM): 87.9%; normalised viability (CAL-85-1 [16]; 10 nM): 110%; normalised viability (CAL-51 [17]; 10 nM): 110%; normalised viability (SK-BR-3 [18]; 100 nM): 108%; normalised viability (MDA-MB-468 [19]; 100 nM): 98%; normalised viability (CAL-148 [20]; 10 nM): 100% |
| c1cc(CN2CCCNCCNCCCNCC2)ccc1CN1CCCNCCNCCCNCC1 [Plerixafor] | 0 | 0 | 0 | 0 | 0 | 0 | 0 | 0 | 0 | 0 | 0 | 0 | 0 | 0 | 0 | 0 |  |  |  |  | normalised viability (HDQ-P1 [11]; 2.5 nM): 112%; normalised viability (CAL-120; 25 nM): 80.1%; normalised viability (HCC1599 [12]; 25 nM): 101%; normalised viability (Hs578T [13]; 25 nM): 93.4%; normalised viability (MDA-MB-231 [14]; 25 nM): 93.9%; normalised viability (MDA-MB-436 [15]; 25 nM): 95.7%; normalised viability (HCC1937; 25 nM): 102%; normalised viability (CAL-85-1 [16]; 2.5 nM): 96.9%; normalised viability (CAL-51 [17]; 2.5 nM): 100%; normalised viability (SK-BR-3 [18]; 25 nM): 84.3%; normalised viability (MDA-MB-468 [19]; 25 nM): 98.5%; normalised viability (CAL-148 [20]; 2.5 nM): 92.3% |
| C[C@]12C=CC(=O)C=C1CC[C@@H]1[C@@H]2[C@@H](O)C[C@@]2(C)[C@H]1CC[C@]2(O)C(=O)CO [Prednisolone] | 0 | 0 | 0 | 0 | 0 | 0 | 0 | 0 | 0 | 0 | 0 | 0 | 4.2 | 0 | 0 | 0 | 108% | 79.9% | 102% | 81.3% | normalised viability (MDA-MB-231 [14]; 100 nM): 114%; normalised viability (MDA-MB-436 [15]; 100 nM): 96.6%; normalised viability (HCC1937; 100 nM): 94%; normalised viability (CAL-85-1 [16]; 10 nM): 109%; normalised viability (CAL-51 [17]; 10 nM): 98.4%; normalised viability (SK-BR-3 [18]; 100 nM): 60.8%; normalised viability (MDA-MB-468 [19]; 100 nM): 108%; normalised viability (CAL-148 [20]; 10 nM): 111% |
